Experiments:
[1] = test system: pseudotyped HCV GT1b particles (HCVpp); test: microbe, parasite or virus in culture; type: cell-based, HCV GT1b Con1 strain; conditions: Hepatitis C virus, GT1B, 72 h, read-out: HCVpp GT-1b (EC50, μM)
[2] = test system: pseudotyped VSV G particles (VSVpp); test: microbe, parasite or virus in culture; type: cell-based, vesicular stomatitis virus; conditions: Vesicular stomatitis virus, 72 h, read-out: VSVpp (EC50, μM)

| SMILES | EC50 [1] [µM] | EC50 [2] [µM] |
| --- | --- | --- |
| Nc1nc(Nc2cc(Cl)c(-n3cccn3)c(Cl)c2)n[nH]1 [Compound 17, N3-(3,5-dichloro-4-(1H-pyrazol-1-yl)phenyl)-1H-1,2,4-triazole-3,5-diamine] | 4.14 | 34.6 |
| Nc1n[nH]c(Nc2cc(F)c(-c3ccc(F)nc3)c(C(F)(F)F)c2)n1 [Compound 9, N^5-(3-Fluoro-4-(6-fluoropyridin-3-yl)-5-trifluoromethylphenyl)-1H-[1,2,4]-triazole-3,5-diamine] | 0.998 | 31.1 |
| COc1cc(-c2c(Cl)cc(Nc3n[nH]c(N)n3)cc2Cl)ccn1 [Compound 6, N3-(3,5-dichloro-4-(2-methoxypyridin-4-yl)phenyl)-1H-1,2,4-triazole-3,5-diamine] | 0.33 | ≥ 10 |
| Nc1nc(Nc2ccc(-c3cccnn3)c(Cl)c2)n[nH]1 [Compound 14, N3-(3-chloro-4-(pyridazin-3-yl)phenyl)-1H-1,2,4-triazole-3,5-diamine] | 6.52 | 15 |
| Nc1ccc(-c2c(Cl)cc(Nc3n[nH]c(N)n3)cc2Cl)cn1 [Compound 4, N*3*-[4-(6-Amino-pyridin-3-yl)-3,5-dichloro-phenyl]-1H-[1,2,4]triazole-3,5-diamine] | 0.173 | 1.4 |

— patent publication US9540345B2, “Antiviral compounds” (priority 2013, dated 2017)
